This note sets out measurements from patent US20230149336A1, “PREPARATION FOR USE AS ANTIOXIDANT” (Evonik Operations GmbH, priority 2020, published 2023).

Entries after “also recorded” stand apart in the source; their conditions may differ.

Assay [1] concerns mice mesenteric arteries. The assay is described as follows: Angiotensin II-induced ROS formation (DHE, DHR123). The class given is cell-based. As to conditions: 50 μg/mL for 1 hour, then Angiotensin II 15 minutes; DHE and DHR123; mixtures ratio 1:1. How it is done:
Dihydroethidium (DHE, Life Technologies) was used to evaluate production of reactive oxygen species (ROS) in mouse mesenteric arteries, as previously described. Briefly, vessels were incubated with 5 μM of DHE for 20 min and subsequently observed under a fluorescence microscope (Zeiss). Images were acquired by a digital camera system (Olympus Soft Imaging Solutions). […] After treatment, vessels were incubated with Krebs solution containing 5 μM DHR123 for 30 min at 37° C., and then washed two times with PBS prior to fluorescence measurement using a fluorescence microplate reader (TECAN infinite 200 Pro).
To investigate the capability of Healthberry 865® and the single anthocyanins contained on the modulation of oxidative stress, several methodological approaches were performed measuring both, total anti reactive oxygen species (ROS) capacity and their specific action on the modulation of the main machinery of ROS production, the activity of NADPH oxidase enzyme. […] The antioxidant vascular actions of single anthocyanins contained in Healthberry 865®: Delphinidin-3-rutinoside (D3-rut), Cyanidin-3-rutinoside (C3-rut), Delphinidin glucoside (DP3-glu), Cyanidin-3-glucoside (C3-glu), Petunidin-3-glucoside (PT3-glu), Delphinidin galactoside (DP3-gal), Peonidin-3-galactoside (PEO3-gal), Delphinidin-3-arabinoside (DP3-ara), Malvidin-3-galactoside (MAL3-gal), Malvidin-3-glucoside (MAL3-glu), Cyanidin-3-galactoside (C3-gal) and Cyanidin-3-arabinopyranoside (C3-arapy) were analyzed.
(§1) Vessels were pre-treated with single anthocyanins (50 μg/mL) for 1 hours and then stimulated with Angiotensin II for 15 minutes prior to the acquisition. (A) Measurement of ROS production by DHR123 in vessels treated with single anthocyanins and combination of anthocyanins mixed with a ratio 1:1. (B) NADPH oxidase activity in mesenteric arteries exposed to HB or single anthocyanins or combination of anthocyanins mixed with a ratio 1:1. Data are expressed as increase of chemiluminescence per minute.

Assay [2] deals with NADPH oxidase (NOX). Description: NADPH oxidase activity after stimulation with Angiotensin II. Format: cell-based, mice. As to conditions: chemiluminescence per minute, mixtures ratio 1:1. The method, then:
Moreover, the analysis of NADPH oxidase (NOX) activity after stimulation with Angiotensin II, a gold-standard inducer of NOX activation was performed.
as §1

The test system of assay [3] is mice mesenteric arteries. Description: Vascular reactivity: vasorelaxation of phenylephrine-precontracted mice mesenteric arteries. Format: cell-based. Conditions: increasing doses (5-300 μg/mL), phenylephrine-precontracted vessels. How it is done:
Second-order branches of the mesenteric arterial tree were removed from mice to perform vascular studies. […] First, an analysis of vascular reactivity curves was performed.

For `OC[C@H]1O[C@@H](Oc2cc3c(O)cc(O)cc3[o+]c2-c2ccc(O)c(O)c2)[C@H](O)[C@@H](O)[C@@H]1O` [C3-glu, Cyanidin-3-glucoside], in assay [1], the “Angiotensin II-induced ROS formation” value is “able to reproduce the antioxidant action of Healthberry 865®”. Further, the “NADPH oxidase (NOX) activity” value in assay [2] is reported as “able to reduce NOX activity; also recorded: the most powerful anthocyanins closer to the potent effect of Healthberry 865®”.
`C[C@@H]1O[C@@H](OC[C@H]2O[C@@H](Oc3cc4c(O)cc(O)cc4[o+]c3-c3ccc(O)c(O)c3)[C@H](O)[C@@H](O)[C@@H]2O)[C@H](O)[C@H](O)[C@H]1O` [C3-rut, Cyanidin-3-rutinoside]: in assay [1], the “Angiotensin II-induced ROS formation” value is recorded as “able to reproduce the antioxidant action of Healthberry 865®”. Moreover, in assay [2], the “NADPH oxidase (NOX) activity” value is recorded as “able to reduce NOX activity”.
On the same counts, the results for `OC[C@H]1O[C@@H](Oc2cc3c(O)cc(O)cc3[o+]c2-c2cc(O)c(O)c(O)c2)[C@H](O)[C@@H](O)[C@@H]1O` [DP3-glu, Delphinidin-3-glucoside] are “able to reproduce the antioxidant action of Healthberry 865®” and “able to reduce NOX activity”.
With `NCCCC[C@H](N)C(=O)O` [L-Lysine], the vasorelaxant action result in assay [3] is recorded as “did not evoke any vasorelaxant effect”.
As to `COc1cc(-c2[o+]c3cc(O)cc(O)c3cc2O[C@@H]2O[C@H](CO)[C@H](O)[C@H](O)[C@H]2O)cc(OC)c1O` [MAL3-gal, Malvidin-3-galactoside], the “Angiotensin II-induced ROS formation” value in assay [1] is recorded as “able to reproduce the antioxidant action of Healthberry 865®”. For the same compound, the “NADPH oxidase (NOX) activity” value in assay [2] is given as “able to reduce NOX activity”.
On the same counts, the results for `COc1cc(-c2[o+]c3cc(O)cc(O)c3cc2O[C@@H]2O[C@H](CO)[C@@H](O)[C@H](O)[C@H]2O)cc(OC)c1O` [MAL3-glu, Malvidin-3-glucoside] are “able to reproduce the antioxidant action of Healthberry 865®” and “able to reduce NOX activity; also recorded: the most powerful anthocyanins closer to the potent effect of Healthberry 865®”.
Taken in the same sequence, the figures for Peonidin-3-galactoside [PEO3-gal] were “able to reproduce the antioxidant action of Healthberry 865®” and “able to reduce NOX activity”.
